In ChEMBL document CHEMBL2069225, “Design, synthesis and molecular docking studies of sinomenine derivatives” (Bioorg Med Chem Lett, 2012):

tested on: RAW264.7; test: Inhibition of NFkappaB in LPS-challenged mouse RAW264.7 cells assessed as ratio of NFkappaB transcriptional activity to thymidine kinase transcriptional activity at 100 uM incubated for 30 mins prior to LPS-challenge measured after 6 hrs by dual luciferase reporter gene assay (reference value: 5.18+/-0.98); format: cell-based

Q: COC1=C[C@@H]2[C@@H]3Cc4ccc(OC)c(OCc5cn(Cc6ccc(OC)cc6)nn5)c4[C@]2(CCN3C)CC1=O was tested. Which Ratio did it give?
A: 3.12

Q: Which Ratio does the source give for COC1=C[C@@H]2[C@@H]3Cc4ccc(OC)c(OCc5cn(Cc6ccc(F)cc6)nn5)c4[C@]2(CCN3C)CC1=O here?
A: 1.98

Q: With COC1=C[C@@H]2[C@@H]3Cc4ccc(OC)c(OCc5cn(Cc6ccc(C#N)cc6)nn5)c4[C@]2(CCN3C)CC1=O as the molecule, how does the Ratio read?
A: 3.61

Q: With COC1=C[C@@H]2[C@@H]3Cc4ccc(OC)c(OCc5cccc(C#N)c5)c4[C@]2(CCN3C)CC1=O as the molecule, how does the Ratio read?
A: 4.28

Q: Which Ratio does the source give for COC1=C[C@@H]2[C@@H]3Cc4ccc(OC)c(OCc5ccc(OC)cc5)c4[C@]2(CCN3C)CC1=O here?
A: 4.85

Q: COC1=C[C@@H]2[C@@H]3Cc4ccc(OC)c(OCc5cn(Cc6ccccc6Cl)nn5)c4[C@]2(CCN3C)CC1=O was tested. Which Ratio did it give?
A: 2.39

Q: Which Ratio does the source give for COC1=C[C@@H]2[C@@H]3Cc4ccc(OC)c(OCc5ccccc5F)c4[C@]2(CCN3C)CC1=O here?
A: 4.71

Q: With COC1=C[C@@H]2[C@@H]3Cc4ccc(OC)c(OCc5cccc([N+](=O)[O-])c5)c4[C@]2(CCN3C)CC1=O as the molecule, how does the Ratio read?
A: 4.18

Q: How did the Ratio turn out when COC1=C[C@@H]2[C@@H]3Cc4ccc(OC)c(OCc5cn(Cc6ccccc6F)nn5)c4[C@]2(CCN3C)CC1=O was run?
A: 3.13

Q: COC1=C[C@@H]2[C@@H]3Cc4ccc(OC)c(OCc5ccc(F)cc5)c4[C@]2(CCN3C)CC1=O was tested. Which Ratio did it give?
A: 4.22

Q: With COC1=C[C@@H]2[C@@H]3Cc4ccc(OC)c(OCc5cn(Cc6ccccc6C#N)nn5)c4[C@]2(CCN3C)CC1=O as the molecule, how does the Ratio read?
A: 1.96

Q: How did the Ratio turn out when COC1=C[C@@H]2[C@@H]3Cc4ccc(OC)c(OCc5ccc([N+](=O)[O-])cc5)c4[C@]2(CCN3C)CC1=O was run?
A: 4.37

Q: How did the Ratio turn out when COC1=C[C@@H]2[C@@H]3Cc4ccc(OC)c(OCc5cccc(Br)c5)c4[C@]2(CCN3C)CC1=O was run?
A: 4.51

Q: For COC1=C[C@@H]2[C@@H]3Cc4ccc(OC)c(OCc5cn(Cc6cccc(Cl)c6)nn5)c4[C@]2(CCN3C)CC1=O, which Ratio is on record?
A: 2.88

Q: How did the Ratio turn out when COC1=C[C@@H]2[C@@H]3Cc4ccc(OC)c(OCc5cn(Cc6ccccc6C)nn5)c4[C@]2(CCN3C)CC1=O was run?
A: 3

Q: With COC1=C[C@@H]2[C@@H]3Cc4ccc(OC)c(OCc5cn(Cc6cccc(C)c6)nn5)c4[C@]2(CCN3C)CC1=O as the molecule, how does the Ratio read?
A: 2.98

Q: How did the Ratio turn out when COC1=C[C@@H]2[C@@H]3Cc4ccc(OC)c(OCc5cn(Cc6ccccc6)nn5)c4[C@]2(CCN3C)CC1=O was run?
A: 1.8

Q: With COC1=C[C@@H]2[C@@H]3Cc4ccc(OC)c(OCc5ccc(Br)cc5)c4[C@]2(CCN3C)CC1=O as the molecule, how does the Ratio read?
A: 4.82

Q: How did the Ratio turn out when COC1=C[C@@H]2[C@@H]3Cc4ccc(OC)c(OCc5cn(Cc6ccc([N+](=O)[O-])cc6)nn5)c4[C@]2(CCN3C)CC1=O was run?
A: 3.63

Q: COC1=C[C@@H]2[C@@H]3Cc4ccc(OC)c(OCc5ccccc5C)c4[C@]2(CCN3C)CC1=O was tested. Which Ratio did it give?
A: 4.91

Q: With COC1=C[C@@H]2[C@@H]3Cc4ccc(OC)c(OCc5cccc(F)c5)c4[C@]2(CCN3C)CC1=O as the molecule, how does the Ratio read?
A: 4.53

Q: With COC1=C[C@@H]2[C@@H]3Cc4ccc(OC)c(OCc5cn(Cc6ccc(Cl)cc6)nn5)c4[C@]2(CCN3C)CC1=O as the molecule, how does the Ratio read?
A: 2.22

Q: Which Ratio does the source give for COC1=C[C@@H]2[C@@H]3Cc4ccc(OC)c(OCc5ccccc5C#N)c4[C@]2(CCN3C)CC1=O here?
A: 5.09

Q: COC1=C[C@@H]2[C@@H]3Cc4ccc(OC)c(OCc5cn(Cc6ccc(C(C)(C)C)cc6)nn5)c4[C@]2(CCN3C)CC1=O was tested. Which Ratio did it give?
A: 3.26

Q: For COC1=C[C@@H]2[C@@H]3Cc4ccc(OC)c(OCc5ccccc5Br)c4[C@]2(CCN3C)CC1=O, which Ratio is on record?
A: 5.03

Q: With COC1=C[C@@H]2[C@@H]3Cc4ccc(OC)c(OCc5cn(Cc6cccc(F)c6)nn5)c4[C@]2(CCN3C)CC1=O as the molecule, how does the Ratio read?
A: 3.04

Q: For COC1=C[C@@H]2[C@@H]3Cc4ccc(OC)c(OCc5cn(Cc6ccc(C)cc6)nn5)c4[C@]2(CCN3C)CC1=O, which Ratio is on record?
A: 3.37

Q: COC1=C[C@@H]2[C@@H]3Cc4ccc(OC)c(OCc5cccc(C)c5)c4[C@]2(CCN3C)CC1=O was tested. Which Ratio did it give?
A: 4.71

Q: How did the Ratio turn out when COC1=C[C@@H]2[C@@H]3Cc4ccc(OC)c(O)c4[C@]2(CCN3C)CC1=O was run?
A: 4.41

Q: For COC1=C[C@@H]2[C@@H]3Cc4ccc(OC)c(OCc5cn(Cc6cccc([N+](=O)[O-])c6)nn5)c4[C@]2(CCN3C)CC1=O, which Ratio is on record?
A: 3.17

Q: COC1=C[C@@H]2[C@@H]3Cc4ccc(OC)c(OCc5cn(Cc6ccccc6[N+](=O)[O-])nn5)c4[C@]2(CCN3C)CC1=O was tested. Which Ratio did it give?
A: 2.32

Q: How did the Ratio turn out when COC1=C[C@@H]2[C@@H]3Cc4ccc(OC)c(OCc5cn(Cc6ccc(Br)cc6)nn5)c4[C@]2(CCN3C)CC1=O was run?
A: 4.19

Q: Which Ratio does the source give for COC1=C[C@@H]2[C@@H]3Cc4ccc(OC)c(OCc5ccc(C)cc5)c4[C@]2(CCN3C)CC1=O here?
A: 5.24

Q: How did the Ratio turn out when COC1=C[C@@H]2[C@@H]3Cc4ccc(OC)c(OCc5cn(Cc6c(Cl)cccc6Cl)nn5)c4[C@]2(CCN3C)CC1=O was run?
A: 3.44

Q: For COC1=C[C@@H]2[C@@H]3Cc4ccc(OC)c(OCc5cn(Cc6cccc(C#N)c6)nn5)c4[C@]2(CCN3C)CC1=O, which Ratio is on record?
A: 2.86

Q: COC1=C[C@@H]2[C@@H]3Cc4ccc(OC)c(OCc5cn(Cc6cccc(Br)c6)nn5)c4[C@]2(CCN3C)CC1=O was tested. Which Ratio did it give?
A: 2.46

Q: COC1=C[C@@H]2[C@@H]3Cc4ccc(OC)c(OCc5ccccc5[N+](=O)[O-])c4[C@]2(CCN3C)CC1=O was tested. Which Ratio did it give?
A: 4.7

Q: How did the Ratio turn out when COC1=C[C@@H]2[C@@H]3Cc4ccc(OC)c(OCc5cn(Cc6ccccc6Br)nn5)c4[C@]2(CCN3C)CC1=O was run?
A: 2.08

Q: COC1=C[C@@H]2[C@@H]3Cc4ccc(OC)c(OCc5cn(Cc6ccc(Cl)cc6Cl)nn5)c4[C@]2(CCN3C)CC1=O was tested. Which Ratio did it give?
A: 2.74
